“And” between values parts separate entries of the source, which are not always exact repeats. Equal values may be shown once.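 Cultured in 96-well plates, cells were exposed to test compound for 48 hours across five concentrations. GI50: concentration for 50% inhibition of growth. TGI denotes the concentration required for complete inhibition of growth.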
What was measured:
Experiment in all cases: NCI-60 cell line screen, 48 h
NCI-H23 lung = test system: NCI-H23 lung
786-0 renal = test system: 786-0 renal
SF-539 CNS = test system: SF-539 CNS
RXF 393 renal = test system: RXF 393 renal
OVCAR-4 ovarian = test system: OVCAR-4 ovarian
NCI-H522 lung = test system: NCI-H522 lung
SK-MEL-28 melanoma = test system: SK-MEL-28 melanoma
BT-549 breast = test system: BT-549 breast
MDA-MB-231 breast = test system: MDA-MB-231 breast
SR leukemia = test system: SR leukemia

Row | Structure (SMILES) | TGI (NCI-H23 lung) | GI50 (786-0 renal) | TGI (786-0 renal) | GI50 (SF-539 CNS) | TGI (SF-539 CNS) | GI50 (RXF 393 renal) | TGI (RXF 393 renal) | GI50 (OVCAR-4 ovarian) | TGI (OVCAR-4 ovarian) | GI50 (NCI-H522 lung) | TGI (NCI-H522 lung) | TGI (SK-MEL-28 melanoma) | TGI (BT-549 breast) | TGI (MDA-MB-231 breast) | TGI (SR leukemia) | GI50 (NCI-H23 lung) | GI50 (BT-549 breast) | GI50 (MDA-MB-231 breast) | GI50 (SK-MEL-28 melanoma)
1 | C[C@@]12CCCc3coc(c31)C(=O)c1cc3c(cc12)C(=O)C=CC3=O | 29.7 µM | > 1 µM | > 1 µM and 30.7 µM | < 1 µM | > 1 µM and 30.1 µM | > 1 µM | > 1 µM and 29.1 µM | > 1 µM | > 1 µM and 28.9 µM | > 1 µM | > 1 µM and 19.5 µM | > 1 µM | – | – | – | – | – | – | –
2 | CC(C)OC(=O)NNc1cc(Cl)ccc1Cl | > 100 µM | – | > 100 µM | – | > 100 µM | – | – | – | – | – | > 100 µM | > 100 µM | > 100 µM | > 100 µM | – | – | – | – | –
3 | CN1NC(=Nc2ccccc2)Sc2c1cnn(-c1ccccc1)c2=O | > 100 µM | – | > 100 µM | – | > 100 µM | – | > 100 µM | – | > 100 µM | – | – | – | – | – | – | – | – | – | –
4 | C=CCNC(=O)N(CCC)CCCCC(NC(C)=O)C(=O)NCc1ccccc1 (centres undefined) | > 100 µM | – | > 100 µM | – | > 100 µM | – | > 100 µM | – | > 100 µM | – | > 100 µM | > 100 µM | – | – | – | – | – | – | –
5 | COC(=O)CCC(=O)CC1CC(=O)C2CCCN12 (centres undefined) | > 100 µM | – | > 100 µM | – | > 100 µM | – | > 100 µM | – | > 100 µM | – | > 100 µM | > 100 µM | – | – | > 100 µM | – | – | – | –
6 | COc1cc2cccc(N=Cc3cccc(OC)c3OC(C)C)c2cc1OC | 57.2 µM | – | 37.8 µM | – | – | – | – | – | 52.4 µM | – | 39.7 µM | 66.9 µM | – | – | – | – | – | – | –
7 | C=C1C(=O)O[C@H]2/C=C(/C)C3=CC(=O)[C@@](C)(C[C@@H](OC(=O)/C(C)=C\C)C12)O3 (some centres undefined) | 10.3 µM | – | 2.22 µM | – | 8.22 µM | – | 1.5 µM | – | > 26.5 µM | – | 0.605 µM | – | 3.11 µM | 11.5 µM | – | – | – | – | –
8 | CC(C)CCCC(C)[C@H]1CCC2[C@H]3C(CC[C@@]21C)[C@@]1(C)CCC=C[C@]12C[C@@H]2[C@@H]3O (some centres undefined) | – | – | > 100 µM | – | > 100 µM | – | > 100 µM | – | > 100 µM | – | > 100 µM | > 100 µM | – | – | > 100 µM | – | – | – | –
9 | Cn1cc(C2=C(c3cn(CCCCCN)c4ccccc34)C(=O)NC2=O)c2ccccc21 | > 25 µM | 9.83 µM | > 25 µM | 6.42 µM | 21.6 µM | 3.66 µM | 9.47 µM | 12.7 µM | > 25 µM | 15.5 µM | > 25 µM | > 25 µM | 24.3 µM | > 25 µM | – | 9.98 µM | 8.62 µM | 17.1 µM | 12.7 µM
10 | C1C[OH+]CCNCC[OH+]CC[OH+]CCN1.[Cl-].[Pt+4] | > 100 µM | > 100 µM | > 100 µM | > 100 µM | > 100 µM | > 100 µM | > 100 µM | > 100 µM | > 100 µM | > 100 µM | > 100 µM | > 100 µM | – | – | – | > 100 µM | – | – | > 100 µM
11 | O=C1c2ccc3c4ccccc4n(Cc4ccccc4)c3c2C(=O)N1c1ccccc1 | 17.6 µM | – | 26.7 µM | – | 31.1 µM | – | 26.7 µM | – | 23.1 µM | – | 6.93 µM | 31.3 µM | – | – | 22.1 µM | – | – | – | –
12 | Nc1nc(CCl)nc(Nc2ccccc2)n1 | 38.7 µM | – | 4.35 µM | – | 70.7 µM | – | – | – | 32.1 µM | – | 3.27 µM | 33.2 µM | – | – | 33.7 µM | – | – | – | –
13 | COC(=O)/C(C#N)=C1\CCC(O)N1 (centres undefined) | > 100 µM | – | > 100 µM | – | > 100 µM | – | > 100 µM | – | > 100 µM | – | > 100 µM | > 100 µM | – | – | > 100 µM | – | – | – | –
14 | CC(=O)c1sc(-c2nc(C)c(C(=O)/C=C\c3ccc(/C=C\C(=O)c4sc(-c5nc(C)c(C(C)=O)s5)nc4C)cc3)s2)nc1C | > 100 µM | – | > 100 µM | – | > 100 µM | – | > 100 µM | – | > 100 µM | – | > 100 µM | > 100 µM | – | – | > 100 µM | – | – | – | –
15 | Cc1cc(NS(=O)(=O)c2ccc(Nc3c4ccccc4nc4c(C(=O)NCCN(C)C)cccc34)cc2)no1 | > 100 µM | – | 19.7 µM | – | 15.2 µM | – | 22.8 µM | – | 57.7 µM | – | 4.56 µM | 48.8 µM | – | – | > 100 µM | – | – | – | –
16 | CC(=O)/C=C/c1ccc(C#Cc2ccccc2)s1 | 27.4 µM | 12.5 µM | 25 µM | 17.3 µM | 31 µM | 16.2 µM | 33 µM | 13.1 µM | 28.6 µM | 12.7 µM | 25.4 µM | 28.8 µM | 28 µM | 28.2 µM | – | 14.4 µM | 13.5 µM | 15 µM | 15.5 µM
17 | COc1cccc(/C(COc2ccc3c(c2)oc(=O)c2cc(OC)ccc23)=N/O)c1 | > 100 µM | 9.66 µM | > 100 µM | 6.55 µM | 81.5 µM | > 100 µM | > 100 µM | 18.8 µM | > 100 µM | 3.12 µM | 9.47 µM | > 100 µM | > 100 µM | 71 µM | – | 33.4 µM | 11.7 µM | 4.37 µM | 4.28 µM
18 | [Au+].[Au+].[Au+].[c-]1nccn1Cc1ccccc1.[c-]1nccn1Cc1ccccc1.[c-]1nccn1Cc1ccccc1 | 30.7 µM | 1.73 µM | 3.11 µM | 2.96 µM | 9.15 µM | 2.03 µM | 5.8 µM | 12.7 µM | 44.1 µM | 1.58 µM | 2.95 µM | 6.15 µM | 42.5 µM | 70.5 µM | – | 4.97 µM | 5.35 µM | 22 µM | 2.71 µM

Source: PubChem BioAssay (NCI)
